Where a name gives a salt, the structure may show the parent alone. Each block holds one compound with its values, some of them ahead of it.
Legend:
[1] = tested on: Pig Liver Esterase (Sigma E-3128, Enzyme E); experiment: Homogeneous aqueous enzymatic resolution (ester hydrolysis), Enzyme E; type: biochemical; details: 30 mg Pig Liver Esterase (E)
[2] = biological target: T1, Protease XXVII, Nagarse (Sigma, Enzyme D) (Bacillus amyloliquefaciens, UniProt P00782); experiment: Homogeneous aqueous enzymatic resolution (ester hydrolysis), Enzyme D; type: biochemical; details: 150 mg enzyme D
T1 construct: purchased Sigma
T1 sequence (P00782 108-382): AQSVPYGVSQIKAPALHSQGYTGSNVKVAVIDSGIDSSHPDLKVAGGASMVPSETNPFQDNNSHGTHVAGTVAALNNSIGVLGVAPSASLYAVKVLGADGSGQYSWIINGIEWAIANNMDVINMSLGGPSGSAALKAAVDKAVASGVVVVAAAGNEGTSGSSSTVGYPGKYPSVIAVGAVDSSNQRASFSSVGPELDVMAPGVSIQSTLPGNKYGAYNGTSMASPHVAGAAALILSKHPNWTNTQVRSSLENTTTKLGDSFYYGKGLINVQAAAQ

[3] = tested on: Protease XXIII from Aspergillus oryzae (Sigma, Enzyme A); experiment: Homogeneous aqueous enzymatic resolution (ester hydrolysis), Enzyme A; type: biochemical
Protocol: No further purification was performed.

[4] = biological target: T2, Protease VIII, Subtilopeptidase A (subtilisin Carlsberg) (Sigma, Enzyme B) (Bacillus licheniformis, UniProt P00780); experiment: Homogeneous aqueous enzymatic resolution (ester hydrolysis), Enzyme B; type: biochemical; details: for % e.e.: acid product
T2 sequence (P00780 106-379): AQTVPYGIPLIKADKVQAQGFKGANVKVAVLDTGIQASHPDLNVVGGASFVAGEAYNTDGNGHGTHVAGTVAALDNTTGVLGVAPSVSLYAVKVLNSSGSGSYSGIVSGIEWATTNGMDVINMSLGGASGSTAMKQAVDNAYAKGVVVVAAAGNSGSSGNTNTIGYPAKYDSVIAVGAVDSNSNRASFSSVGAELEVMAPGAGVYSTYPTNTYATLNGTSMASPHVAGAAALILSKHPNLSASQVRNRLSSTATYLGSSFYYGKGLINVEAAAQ

[5] = tested on: protease Prozyme 6 from Aspergillus oryzae (Amano, Enzyme F); experiment: Homogeneous aqueous enzymatic resolution (ester hydrolysis), Enzyme F; type: biochemical; details: for % CONVERSION: 10 mmol ester in 100 ml 0.2M buffer pH 7.0, 25 C
Protocol: (§1) The enzymatic reaction mixtures were capped and briefly shaken until all the substrate had dissolved, and the enzyme had completely dissolved or dispersed. […] Evaporation of the ether left a white solid. Rotations were measured at c=1 in CHCl3.
as §1
The reaction was started by adding 100 mg of the protease (F) from the fungus Aspergillus oryzae (from Amano Enzyme Corporation, Prozyme 6, 60,000 units per mg of solid).
After 20 hours at room temperature, the solution was acidified to pH 2 and extracted with 3 volumes of diethyl ether. The aqueous phase was saved for subsequent workup. The ether phase was washed with two volumes of distilled water and then one volume of saturated sodium chloride, and then it was dried over MgSO4 and subsequently evaporated to dryness. The resolved ibuprofen product recovered was 930 mg of white powder, indicating 45% conversion of racemic ester to acid. The optical rotation was -0.580° (measured at c=1 in ethanol), indicating the R isomer of ibuprofen.
35 mg of protease Enzyme F, as the commercial preparation Prozyme 6, were added to the aqueous solution. The reaction flask was capped, and briefly shaken until all the enzyme had dissolved or dispersed. […] The resulting mixture was diluted with one volume of water and was extracted with diethyl ether (2 times 200 ml). The ether layers were combined and backwashed with water (2 times 200 ml), saturated NaCl solution (200 ml), and then dried over MgSO4.
In this control run, a 0.5M ester solution of (1) was prepared in 325 ml of 0.1M sodium phosphate buffer (pH 7.0). The reaction was started by adding 3 gm of the above enzyme (F). The pH was controlled at 7.0 with 8.22M sodium hydroxide. After 6.49 hours at 30 ° C., 6.63 ml of hydroxide were added, indicating 37.7% conversion. The reaction was allowed to continue overnight and, after 23.1 hours, a total of 7.2 ml of sodium hydroxide were added, indicating 40.9% conversion.

[6] = tested on: lipase derived from Candida cylindracea (Genzyme, Enzyme G); experiment: Asymmetric hydrolysis in a multiphase membrane bioreactor, Enzyme G
Protocol: 3.0 grams of the lipase were dissolved in 500 mls of distilled water; this solution was recirculated in an ultrafiltration mode from the shell into the lumen and back to the reservoir for 30 minutes. The ultrafiltrate was then collected until the reservoir was empty, and methyl isobutyl ketone (MIBK) was then pumped into the shell and recirculated at 400-450 ml/min with a 5-7 psig shell pressure to remove any remaining enzyme solution from the shell.
A reactor was prepared as described in Example 6.2.2.5 (naproxen) using essentially the same mode of loading the enzyme, 3.0 grams of Candida lipase (Enzyme G, from Genzyme Corporation) were ultrafiltered from the shell into the lumen. The enzyme was then washed with 2-3 l of distilled water and 1 l of potassium phosphate buffer (0.10 M, pH 7.7). The module was then drained.
No organic solvent was required as the substrate is already a water-immiscible liquid. Phosphate buffer was immediately pumped into the lumen and recirculated at 400-450 ml/min.
The reaction was monitored by following acid production based on hydroxide titration data. […] The aqueous buffer was replaced after 76 minutes and acidified to pH 2.0 with concentrated HCl in the presence of about 200 ml of chloroform.

[7] = tested on: Candida lipase (Sigma L-1754, Enzyme H); experiment: Asymmetric hydrolysis in a multiphase membrane bioreactor, Enzyme H; details: 210 gm neat ester
Protocol: The enzyme solution was recirculated from the shell side to the lumen side and back to the solution reservoir in an ultra-filtration mode. […] The procedure was completed in one hour.
After loading the enzyme to the reactor, recirculation of 210 gm. […] The recirculation rate was 400 ml/min and the average pressure on the shell compartment was kept at 6.5 psi by adjusting a throttling valve at the shell side exit. On the lumen side 1 liter of 0.05M K was recirculated at a rate of 400 ml/min. The pH of the aqueous reservoir was kept at 7.0 by addition of 1M NaOH. The reactor was run continuously for 6.8 days.
The reaction progress and rate were monitored by following the caustic consumption. […] The initial ester substrate to the reactor had no optical rotation.

[8] = 0.010 mol ester in 100 ml 0.2M sodium phosphate pH 7.8

- % e.e. ([3]; acid product, 100 mg enzyme A, pH 7.0, 20-22 C, 20 hours): > 99%
SMILES: CC(C)Cc1ccc(C(C)C(=O)OCC[N+](C)(C)C)cc1 (racemic) [Compound 10, Iodide Salt of 2-(N,N,N-Trimethylammonium)ethyl Ester of 2-(4-Isobutylphenyl)propanoic Acid]

- % CONVERSION ([3]; 100 mg enzyme A, 10.0 mmol ester in 100 ml 0.2M buffer pH 7.0, 25 C, 18 hours): 53%
- % e.e. ([3]; acid product, 100 mg enzyme A, pH 7.0, 25 C, 18 hours): 3%
- % CONVERSION ([4]; 100 mg enzyme B, 10.0 mmol ester in 100 ml 0.2M buffer pH 7.0, 25 C, 18 hours): 26%
- % e.e. ([4]; 100 mg enzyme B, pH 7.0, 25 C, 18 hours): 10%
SMILES: CC(CSC(=O)c1ccccc1)C(=O)OCS(=O)(=O)O (racemic) [Compound 16, Potassium Salt of the Sulfomethyl Ester of (±)-S-3-Benzoylthio-2-methylpropanoic Acid]

- % e.e. ([3]; acid product, 150 mg enzyme A, 125 ml, pH 7.0, 18 hours): > 99%
- % e.e. ([4]; 150 mg enzyme B, 125 ml, pH 7.0, 18 hours): 90.0%
SMILES: CC(C)Cc1ccc(C(C)C(=O)OCCS(=O)(=O)O)cc1 (stereo not shown) [Compound 2, Sodium Salt of 2-Sulfoethyl Ester of 2-(4-Isobutylphenyl)propanoic Acid]

- % CONVERSION ([4]; 100 mg enzyme B, 10 mmol ester in 100 ml 0.2 M phosphate buffer pH 7.0, 20-22 C, 20 hours): 20.0%
SMILES: CC(C)Cc1ccc(C(C)C(=O)OCCCCS(=O)(=O)O)cc1 (stereo not shown) [Compound 4, Potassium Salt of 4-Sulfobutyl Ester of 2-(4-Isobutylphenyl)propanoic Acid]

- % e.e. ([3]; naproxen acid product, 150 mg enzyme A, pH 7.8 (Table 13)): 59.0%
SMILES: COc1ccc2cc(C(C)C(=O)OCCS(=O)(=O)O)ccc2c1 (stereo not shown) [Compound 8, Potassium Salt of 2-Sulfoethyl Ester of 2-(6-Methoxy-2-naphthyl) propanoic Acid]

- enantiomeric excess of S isomer of Naproxen (from unconverted ester hydrolyzed at pH 12) ([3]; 100 mg enzyme A, pH 7.5, 25 degrees, 16 hours, from rotation in CHCl3): 45.5%
SMILES: COc1ccc2cc(C(C)C(=O)OCS(=O)(=O)O)ccc2c1 (stereo not shown) [Compound 9, Sodium Salt of Sulfomethyl Ester of 2-(6-Methoxy-2-naphthyl)propanoic Acid]

- % CONVERSION ([5]; 100 mg Prozyme 6 (F), 18 hours): 34.0%
SMILES: COc1ccc2cc(C(C)C(=O)OCCC[N+](C)(C)C)ccc2c1 (stereo not shown) [Compound 12, Methyl Sulfate Salt of 3-(N,N,N-Trimethylammonium)propyl Ester of 2-(6-Methoxy-2-naphthyl)propanoic Acid]

- completion of reaction ([5]; 35 mg Prozyme 6 (F), 10 mmol ester in 100 ml 0.2M sodium phosphate pH 7.0, 30 C, 1 hour): 22.5%
SMILES: CC(Oc1ccc(Cl)cc1)C(=O)OCS(=O)(=O)O (stereo not shown) [Compound 17, Sodium Salt of the Sulfomethyl Ester of 2-(4-Chlorophenoxy)propanoic Acid]

Second part, the compound before the results:

SMILES: CC(C)Cc1ccc(C(C)C(=O)OCCCS(=O)(=O)O)cc1 (racemic) [Compound 3, Potassium Salt of 3-SulfopropylEster of 2-(4-Isobutylphenyl)propanoic Acid]
- % CONVERSION [1, 8]: 12.1%
- % e.e. ([1]; acid product, pH 7.8): 88.0%
- % CONVERSION [2, 8]: 32.0%
- % e.e. ([2]; acid product, pH 7.8): 91.0%
- % CONVERSION ([3]; 100 mg enzyme A, 10 mmol ester in 100 ml 0.2 M phosphate buffer pH 7.0, 20-22 C, 20 hours): 50.0%
- conversion of the racemic ester to acid ([3]; 1.00 gm enzyme A, about 1M ester, pH 7.0, room temperature, 23.9 hours, by NaOH titration): 29%

SMILES: COc1ccc2cc(C(C)C(=O)OCCCS(=O)(=O)O)ccc2c1 (stereo not shown) [Compound 7, Potassium Salt of the 3-Sulfopropyl Ester of 2-(6-Methoxy-2-naphthyl)propanoic Acid]
- % e.e. ([3]; naproxen acid product, 150 mg enzyme A, pH 7.8, 18 hours (Table 12)): 78.0%

SMILES: COc1ccc2cc(C(C)C(=O)OCC[N+](C)(C)C)ccc2c1 (stereo not shown) [Compound 11, Methyl Sulfate Salt of 2-(N,N,N-Trimethylammonium)ethyl Ester of 2-(6-Methoxy-2-naphthyl)propanoic Acid]
- % CONVERSION ([5]; 100 mg Prozyme 6 (F), 18 hours): 24.3%
- % e.e. ([5]; naproxen acid product, 100 mg Prozyme 6 (F), pH 7.0, 25 C, 18 hours): 34.0%

SMILES: COC(=O)C(C)c1ccc2cc(OC)ccc2c1 (stereo not shown) [Compound 18, Methyl Ester of 2-(6-Methoxy-2-naphthyl)propanoic Acid]
- average rate of hydrolysis, first 45 minutes ([6]; 0.75M ester in MIBK, 3.0 grams lipase in 0.85 m2 module, pH 8.50): 35 µmol/h

SMILES: CC(C)Cc1ccc(C(C)C(=O)OCC(F)(F)F)cc1 (stereo not shown) [Compound 19, 2,2,2-Trifluoroethyl Ester of 2-(4-Isobutylphenyl)propanoic Acid]
- average hydrolytic rate, first 60 minutes ([6]; neat liquid ester, 3.0 grams lipase, pH 7.7): 160 µmol/min
- average hydrolysis rate, next 76 hours ([6]; neat liquid ester, 3.0 grams lipase, pH 7.7, by titrimetry): 21 µmol/min
- conversion to acid ([6]; neat liquid ester, 3.0 grams lipase, pH 7.7, over the 76 hours): about 9.8%

SMILES: CCCCCCCCOC(=O)C(C)Cl (stereo not shown) [Compound 20, Octyl Ester of 2-Chloropropanoic Acid]
- rate of ester hydrolysis at the beginning of the experiment ([7]; 30 grams lipase loaded, pH 7.0): 186 µmol/min
- initial ester hydrolyzed at termination ([7]; pH 7.0, run 6.8 days): 41%
- rate of ester hydrolysis at the end of the experiment ([7]; pH 7.0, run 6.8 days): 25 µmol/min

Source: US5198568A, “Compounds useful in enzymatic resolution systems and their preparation” (priority 1991, dated 1993)
